Measured values as given in ChEMBL document CHEMBL5126587 (Bioorg Med Chem, 2022).
Activity calls are given as the source filed them. The rule behind the calls is not given here. Numbered stars: 1 amine (or outer) side, 2 acyl side, 3 side chain; on linkers, the order of the positions; unused ones are H or OH. Peptide text beside a SMILES is read from it. * marks the point of attachment. X1 = NC(=O)c1n[nH]nc1[C@@H]1O[C@H](COC(=O)CCC(=O)NCCCOCCOCCOCCCN*)[C@@H](O)[C@H]1O; Suc = O=C(CCC(=O)[*:2])[*:1]

Assays:
[1] = test system: Hepatitis C virus; assay: microbe, parasite or virus in culture; details: genotype 2a (JFH-AM71), Huh7-J20, 72 h
[2] = in vitro; details: human, Huh7-J20 cells
[3] = test system: Zika virus; type: functional
[4] = test system: Hepatitis C virus; type: functional, Hepacivirus hominis, genotype 2a (JFH-AM71), Huh7-J20; details: dose 100 µM; time 72 hrs
[5] = in vitro; details: human, Huh7.5 cells
[6] = in vitro; details: monkey, Vero cells
[7] = test system: Zika virus; assay: microbe, parasite or virus in culture; details: H/PAN/2016/BEI-259634, Huh7.5, 72 h
[8] = test system: Zika virus; type: functional, H/PAN/2016/BEI-259634, Vero
[9] = test system: Zika virus; assay: microbe, parasite or virus in culture; details: H/PAN/2016/BEI-259634, Vero, 72 h
[10] = test system: Hepatitis C virus; type: functional, Hepacivirus hominis, genotype 2a (JFH-AM71), Huh7-J20; details: dose 0.045 µM; time 72 hrs
[11] = test system: Zika virus; type: functional, H/PAN/2016/BEI-259634, Vero; details: dose 50-100 µM; time 3 day; at 50 to 100 µM
[12] = test system: Zika virus; type: functional, H/PAN/2016/BEI-259634, Huh7.5; details: dose 50-100 µM; time 3 day; at 50 to 100 µM
[13] = H/PAN/2016/BEI-259634, Huh7.5, dose 100.0 µM, time 3.0 day

Question: Which results are given for `CCCNC(=O)c1n[nH]nc1[C@@H]1O[C@H](CO)[C@@H](O)[C@H]1O`?
Answer: IC50 [1]: 100 µM; selectivity ratio [2]: 7.3; Activity [3, 13]: Active; Activity [4]: 45%

Question: With `CC(=O)OC[C@H]1O[C@@H](c2n[nH]nc2C(N)=O)[C@H](OC(C)=O)[C@@H]1OC(C)=O` as the compound, how does the Activity [3, 13] read?
Answer: The Activity was “Active”.

Question: With `NC(=O)c1ncn([C@@H]2O[C@H](CO)[C@@H](O)[C@H]2O)n1` [RIBAVIRIN] as the compound, how does the IC50 [1] read?
Answer: Its IC50 is 21.8 µM.

Question: And the selectivity ratio [2]?
Answer: The selectivity ratio was 46.8.

Question: And the selectivity ratio [5]?
Answer: Its selectivity ratio is 240.

Question: And the selectivity ratio [6]?
Answer: Its selectivity ratio is 41.6.

Question: And the IC50 [7]?
Answer: The IC50 was 6.9 µM.

Question: And the Activity ([8]; dose 100 µM, time 3 day)?
Answer: The Activity was 80%.

Question: And the Activity ([3]; dose 100 µM, time 3 day)?
Answer: The Activity was 80%.

Question: What about the Activity [4] of the same compound?
Answer: Its Activity is 80%.

Question: What about the IC50 [9] of the same compound?
Answer: The IC50 was 29.9 µM.

Question: Which Activity [10] does the source give for `CC[C@H](C)[C@H](NC(=O)[C@H](Cc1cnc[nH]1)NC(=O)[C@H](Cc1c[nH]c2ccccc12)NC(=O)[C@H](CO)NC(=O)CCC(=O)NCCCOCCOCCOCCCNC(=O)CCC(=O)OC[C@H]1O[C@@H](c2n[nH]nc2C(N)=O)[C@H](O)[C@@H]1O)C(=O)N[C@@H](CC(N)=O)C(=O)N[C@@H](CCCNC(=N)N)C(=O)N[C@H](C(=O)N[C@@H](C)C(=O)N[C@@H](CC(C)C)C(=O)N[C@@H](CC(N)=O)C(=O)N[C@@H](CO)C(=O)N[C@@H](CC(N)=O)C(=O)N[C@@H](CC(=O)O)C(=O)N[C@@H](CO)C(N)=O)[C@@H](C)O` ({X1-Suc}-SWHINRTALNSNDS-NH2) here?
Answer: Its Activity is 45%.

Question: What does the source list for `NC(=O)c1n[nH]nc1[C@@H]1O[C@H](CO)[C@@H](O)[C@H]1O`?
Answer: IC50 [1]: 68 µM; selectivity ratio [2]: 15.7; Activity ([8]; dose 100 µM, time 3 day): 20%; Activity [4]: 60%

Question: With `O=C(NO)c1n[nH]nc1[C@@H]1O[C@H](CO)[C@@H](O)[C@H]1O` as the compound, how does the IC50 [1] read?
Answer: The IC50 was 49.1 µM.

Question: And the selectivity ratio [2]?
Answer: The selectivity ratio was 16.8.

Question: And the selectivity ratio [5]?
Answer: Its selectivity ratio is 23.8.

Question: And the selectivity ratio [6]?
Answer: The selectivity ratio was 29.1.

Question: What about the IC50 [7] of the same compound?
Answer: Its IC50 is 37.3 µM.

Question: What about the Activity ([8]; H/PAN/2016/BEI-259634, Vero, dose 100.0 µM, time 3.0 day) of the same compound?
Answer: The Activity was “Active”.

Question: And the Activity [11]?
Answer: Its Activity is 70%.

Question: What about the Activity [3, 13] of the same compound?
Answer: The Activity was “Active”.

Question: And the Activity [12]?
Answer: Its Activity is 70%.

Question: What about the Activity [4] of the same compound?
Answer: The Activity was 67%.

Question: And the IC50 [9]?
Answer: Its IC50 is 33.2 µM.

Question: For `N=C(N)NCCC[C@H](NC(=O)[C@H](CCCNC(=N)N)NC(=O)[C@H](CCCNC(=N)N)NC(=O)[C@H](CCC(N)=O)NC(=O)[C@H](CCCNC(=N)N)NC(=O)[C@H](CCCNC(=N)N)NC(=O)[C@H](CCCCN)NC(=O)[C@H](CCCCN)NC(=O)[C@H](CCCNC(=N)N)NC(=O)CNC(=O)[C@H](Cc1ccc(O)cc1)NC(=O)CCC(=O)NCCCOCCOCCOCCCNC(=O)CCC(=O)OC[C@H]1O[C@@H](c2n[nH]nc2C(N)=O)[C@H](O)[C@@H]1O)C(N)=O`, which Activity [10] is on record?
Answer: Its Activity is 45%.

Question: Which IC50 [1] does the source give for `O=C(NCCCO)c1n[nH]nc1[C@@H]1O[C@H](CO)[C@@H](O)[C@H]1O` here?
Answer: The IC50 was 68 µM.

Question: And the selectivity ratio [2]?
Answer: Its selectivity ratio is 13.4.

Question: What about the Activity ([8]; dose 100 µM, time 3 day) of the same compound?
Answer: The Activity was 20%.

Question: And the Activity [4]?
Answer: The Activity was 45%.
